Data set [1] concerns hexobarbital-induced narcosis. The data set can be described thus: Modification (potentialisation) of hexobarbital-induced narcosis in mice. In kind it is in vivo. To be noted: Mus musculus, sodium hexobarbital 70 mg/kg IP half an hour later, read-out: Narcosis potentialisation, T (percentage increase in sleep time induced by hexobarbital); for change in vivo at 200 mg/kg: 200 mg/kg IP; for change in vivo at 10 mg/kg: 10 mg/kg IP; for change in vivo at 100 mg/kg: 100 mg/kg IP. As for the experimental part: (§1) This was investigated by observing the behaviour of the animal by studying the modification in hexobarbital-induced narcosis and antagonism vis-a-vis reserpine.
Mice, each weighing about 20 g, received intraperitoneally the product being investigated. Half an hour later sodium hexobarbital was injected by the same route at a dosage of 70 mg/kg.
The animals were placed on a hot plate maintained at a constant temperature of 27° C. Sleep is considered to have occurred as soon as a mouse, placed in the dorsal decubitus position, is incapable of turning over onto its paws.
The narcosis potentialisation is evaluated from the percentage increase in sleep time induced by hexobarbital (T).

In data set [2] the test system is blepharospasm produced by reserpine. The data set can be described thus: Antagonism vis-a-vis reserpine (blepharospasm) in mice. Format: in vivo, Swiss male mice. Also noted: key: The inhibition of blepharospasm is recorded from 0 to +++; The inhibition of blepharospasm is recorded from 0 to +++. The settings on record: reserpine 5 mg/kg IP. As for the experimental part: as §1
(Chen G., and Bohner B., (1961) J. pharmacol Exptl. Therap. 131, 179).
Reserpine when administered intraperitoneally to mice in a dosage of 5 mg/kg causes the eyelids to close more or less completely in the majority of animals. The administration of certain products will inhibit the blepharospasm produced by reserpine.
Swiss male mice are distributed into groups of 10 mice, and each experiment includes at least 3 groups:
a control group that receives only the solvent and reserpine
a group treated with a reference product (we chose Imipramine)
a treated group that receives the product being tested.
The products under investigation are administered intraperitoneally at 30 minutes or 2 hours before intraperitoneal injection of reserpine in a dosage of 5 mg/kg, so as to study their activity as a function of time.
The degree of ptosis for each eye and each animal is observed every 30 minutes for 4 to 5 hours, using RUBIN's score method. The activity of the product is determined by comparison with the result obtained with the treated control group. The inhibition of blepharospasm is recorded from 0 to +++.

Data set [3] can be described thus: Acute toxicity (LD50), mice, intraperitoneal route, Log-Probits method of Miller and Tainter. Format: in vivo. The settings on record: mouse, in vivo, ip. As for the experimental part:
(§2) The LD50 of the products was determined in mice by the intraperitoneal route according to the "Log-Probits" method of Miller and Tainter (Proc. Soc. Exptl. Biol. Med. 1944; 57, 261-264).

For the next data set, the system named is mice. The description is as above. Format: in vivo. As for the experimental part: as §2
Another data set concerns central nervous system. The data set can be described thus: Activity on the central nervous system (overall conclusion). Also noted: species or system mice. The settings on record: mouse, in vivo.
Excerpt: as §1

This is an account of results in patent US4177271A, “Hydroxy- and oxo-substituted α-benzylidenylcycloalkanes” (Unicler, priority 1977, dated 1979).

As a reminder, the LD50 is the dose expected to kill half of the subjects tested.

As for `COc1ccc(C=C2CCCC(C)C2O)c(OC)c1OC` (centres unmarked) [compound 1271], the change in vivo at 50 mg/kg in data set [1] (50 mg/kg IP) was determined as 0%. The “Blepharospasm (inhibition)” value in data set [2] (50 mg/kg IP) was 0. The LD50 in data set [3] is 500 mg/kg.
Consider `OC1C(=Cc2ccc3c(c2)OCO3)CCc2ccccc21` (centres unmarked) [compound 1388], for which the change in vivo at 200 mg/kg in data set [1] worked out at 10%. Also, the “Blepharospasm (inhibition)” value in data set [2] (200 mg/kg IP) is 0. In addition, the “DL0 (IP)” value in the data set with mice was more than 200 mg/kg.
For `O=C1CCCC1=Cc1ccc2c(c1)OCO2` [compound 1386], the change in vivo at 130 mg/kg in data set [1] (130 mg/kg IP) came to 190%. Moreover, the “Blepharospasm (inhibition)” value in data set [2] (130 mg/kg IP) is 0. The same compound displayed an LD50 in data set [3] of 1300 mg/kg.
Consider `CN1CCN(CC2(C)CCCC(=Cc3ccc4c(c3)OCO4)C2=O)CC1` (centres unmarked) [compound 1352], for which the change in vivo at 15 mg/kg in data set [1] (15 mg/kg IP) is 0%. The “Blepharospasm (inhibition)” value in data set [2] (15 mg/kg IP) is on record as 0. Further, the LD50 in data set [3] stood at 150 mg/kg.
As to `O=C1C(=Cc2ccc3c(c2)OCO3)CCc2ccccc21` [compound 1293], the change in vivo at 200 mg/kg in data set [1] came out at 30%. The “Blepharospasm (inhibition)” value in data set [2] (200 mg/kg IP) was 0. The “DL0 (IP)” value in the data set with mice was not below 2000 mg/kg.
For the compound `OC1C(=Cc2ccc3c(c2)OCO3)Cc2ccccc21` (centres unmarked) [compound 1322], the change in vivo at 150 mg/kg in data set [1] (150 mg/kg IP) is 116%. The “Blepharospasm (inhibition)” value in data set [2] (150 mg/kg IP) is given as 0. This compound had an LD50 in data set [3] of 1500 mg/kg.
With `COc1ccc(C=C2CCCC(C)C2O)cc1OC` (centres unmarked) [compound 1267], the median lethal dose (LD50) in data set [3] worked out at 900 mg/kg.
As for `CC1CCCC(=Cc2cc3c(cc2Cl)OCO3)C1O` (centres unmarked) [compound 1275], the change in vivo at 200 mg/kg in data set [1] is 56%. In addition, the “Blepharospasm (inhibition)” value in data set [2] (200 mg/kg IP) was determined as 0. In data set [3], this compound returned an LD50 of 2000 mg/kg.
As to `CC1CCC(O)C(=Cc2ccc3c(c2)OCO3)C1` (centres unmarked) [compound 1446], the LD50 in data set [3] worked out at 1500 mg/kg.
For `CC1CC(=Cc2ccc3c(c2)OCO3)C(=O)C(=Cc2ccc3c(c2)OCO3)C1` (centres unmarked) [compound 1059], the change in vivo at 200 mg/kg in data set [1] was determined as 0%. Also, in data set [2] (200 mg/kg IP), the “Blepharospasm (inhibition)” value is recorded as 0. In addition, in the data set on mice, the “DL0 (IP)” value is not below 2000 mg/kg.
`CC1CCC(=O)C(=Cc2ccc3c(c2)OCO3)C1` (centres unmarked) [compound 994]: in data set [1], the change in vivo at 200 mg/kg came to 103%. Also, the “Blepharospasm (inhibition)” value in data set [2] (200 mg/kg IP) was determined as 0. In addition, the LD50 in data set [3] is 2000 mg/kg.
On the same counts, the results for `CC1CCCC(=Cc2ccc3c(c2)OCO3)C1=O` (centres unmarked) [compound 993] are 385%, 0 and 2000 mg/kg.
For `COc1ccc(C=C2CCCC(C)C2=O)cc1OC` (centres unmarked) [compound 1266], the change in vivo at 70 mg/kg in data set [1] (70 mg/kg IP) is 0%. For the same compound, the “Blepharospasm (inhibition)” value in data set [2] (70 mg/kg IP) is on record as 0. The compound further had an LD50 in data set [3] of 700 mg/kg.
Regarding `CC1CCCC(=Cc2cc3c(cc2Cl)OCO3)C1=O` (centres unmarked) [compound 1274], the change in vivo at 200 mg/kg in data set [1] was found to be 99%. Further, the “DL0 (IP)” value in the data set on mice is not below 2000 mg/kg.
Take `OC1CCCC1=Cc1ccc2c(c1)OCO2` (centres unmarked) [compound 1387]: in data set [1], the change in vivo at 10 mg/kg came out at 40%. Further, in data set [2] (10 mg/kg IP), the “Blepharospasm (inhibition)” value turned out to be 0. Besides, in data set [3], the LD50 was determined as 100 mg/kg.
Consider `COc1cc(C=C2CCCC(C)C2=O)cc(OC)c1OC` (centres unmarked) [compound 1268], for which the change in vivo at 100 mg/kg in data set [1] was 60%. This compound yielded an LD50 in data set [3] of 1000 mg/kg.
For the compound `COc1cc(C=C2CCCC(C)C2O)cc(OC)c1OC` (centres unmarked) [compound 1269], the change in vivo at 110 mg/kg in data set [1] (110 mg/kg IP) was 66%. In data set [2] (110 mg/kg IP), the “Blepharospasm (inhibition)” value is recorded as 0. In addition, the median lethal dose (LD50) in data set [3] is 1100 mg/kg.
As to `CN1CC(=Cc2ccc3c(c2)OCO3)C(O)C(=Cc2ccc3c(c2)OCO3)C1` (centres unmarked) [compound 1324], the change in vivo at 200 mg/kg in data set [1] was 83%. For the same compound, in data set [2] (200 mg/kg IP), the “Blepharospasm (inhibition)” value is on record as 0. Moreover, the “DL0 (IP)” value with mice is given as not below 2000 mg/kg.
For `CC1CCCC(=Cc2ccc3c(c2)OCO3)C1O` (centres unmarked) [Code No. 1040, 2-(3,4-methylenedioxybenzylidene)-6-methylcyclohexanol or 2-piperonylidene-6-methylcyclohexanol], the change in vivo at 100 mg/kg in data set [1] is 174%. Further, the “usefulness as an anti-depressant” value in the data set with central nervous system is “particularly useful as an anti-depressant”. The 50% lethal dose (LD50) in data set [3] was determined as 1000 mg/kg.
Turning to `OC1C(=Cc2ccc3c(c2)OCO3)CCCC1CN1CCOCC1` (centres unmarked) [compound 1347], in data set [1], the change in vivo at 100 mg/kg came out at 60%. Further, the LD50 in data set [3] is 1000 mg/kg.
For `O=C1C(=Cc2ccc3c(c2)OCO3)Cc2ccccc21` [compound 1292], the change in vivo at 200 mg/kg in data set [1] came to 62%. Further, the “Blepharospasm (inhibition)” value in data set [2] (200 mg/kg IP) amounted to 0. For the same compound, the “DL0 (IP)” value in the data set with mice is on record as not below 2000 mg/kg.
For the compound `COc1ccc(C=C2CCCC(C)C2=O)c(OC)c1OC` (centres unmarked) [compound 1270], in data set [3], the LD50 came out at 1000 mg/kg.
As to `CN(C)CC1(C)CCCC(=Cc2ccc3c(c2)OCO3)C1O` (centres unmarked) [compound 1349], the change in vivo at 10 mg/kg in data set [1] came out at 10%. Also, the LD50 in data set [3] was 100 mg/kg.
